According to patent US20150087627A1, “COMBINATION OF KINASE INHIBITORS AND USES THEREOF” (Intellikine LLC, priority 2011, published 2015):
Where two headings read alike, the source gives them in different places.

Tests used:
Type in all cases: biochemical
mTOR = target: T1, mTOR (Homo sapiens, UniProt P42345); test: mTOR kinase inhibition assay (radiometric or LanthaScreen TR-FRET); conditions: read-out: mTORC IC50
T1 construct: purchased Invitrogen
Method: The cross-activity or lack thereof of one or more compounds of the present invention against mTor can be measured according to any procedures known in the art or methods disclosed below.
The compounds described herein can be tested against recombinant mTOR (Invitrogen) in an assay containing 50 mM HEPES, pH 7.5, 1 mM EGTA, 10 mM MgCl2, 2.5 mM, 0.01% Tween, 10 μM ATP (2.5 μCi of μ-32P-ATP), and 3 μg/mL BSA. Rat recombinant PHAS-1/4EBP1 (Calbiochem; 2 mg/mL) is used as a substrate. Reactions are terminated by spotting onto nitrocellulose, which is washed with 1M NaCl/1% phosphoric acid (approximately 6 times, 5-10 minutes each). Sheets are dried and the transferred radioactivity quantitated by phosphorimaging.
For instance, one can use Invitrogen's LanthaScreen™ Kinase assay to test the inhibitors of mTOR disclosed herein. This assay is a time resolved FRET platform that measures the phosphorylation of GFP labeled 4EBP1 by mTOR kinase. The kinase reaction is performed in a white 384 well microtiter plate. The total reaction volume is 20 ul per well and the reaction buffer composition is 50 mM HEPES pH7.5, 0.01% Polysorbate 20, 1 mM EGTA, 10 mM MnCl2, and 2 mM DTT. In the first step, each well receives 2 ul of test compound in 20% dimethylsulphoxide resulting in a 2% DMSO final concentration. […] The plate is sealed and incubated for 1 hour at room temperature. […] The plate is sealed, incubated for 1 hour at room temperature, and then read on a plate reader set up for LanthaScreen™ TR-FRET. Data is analyzed and IC50s are generated using GraphPad Prism 5.

PI3K δ = target: T2, PI3K δ (Homo sapiens, UniProt O00329); test: PI 3-Kinase (human) HTRF assay, PI3K δ; conditions: read-out: PI3K δ IC50
T2 construct: purchased Upstate / Millipore Corporation
T2 sequence (O00329 whole entry): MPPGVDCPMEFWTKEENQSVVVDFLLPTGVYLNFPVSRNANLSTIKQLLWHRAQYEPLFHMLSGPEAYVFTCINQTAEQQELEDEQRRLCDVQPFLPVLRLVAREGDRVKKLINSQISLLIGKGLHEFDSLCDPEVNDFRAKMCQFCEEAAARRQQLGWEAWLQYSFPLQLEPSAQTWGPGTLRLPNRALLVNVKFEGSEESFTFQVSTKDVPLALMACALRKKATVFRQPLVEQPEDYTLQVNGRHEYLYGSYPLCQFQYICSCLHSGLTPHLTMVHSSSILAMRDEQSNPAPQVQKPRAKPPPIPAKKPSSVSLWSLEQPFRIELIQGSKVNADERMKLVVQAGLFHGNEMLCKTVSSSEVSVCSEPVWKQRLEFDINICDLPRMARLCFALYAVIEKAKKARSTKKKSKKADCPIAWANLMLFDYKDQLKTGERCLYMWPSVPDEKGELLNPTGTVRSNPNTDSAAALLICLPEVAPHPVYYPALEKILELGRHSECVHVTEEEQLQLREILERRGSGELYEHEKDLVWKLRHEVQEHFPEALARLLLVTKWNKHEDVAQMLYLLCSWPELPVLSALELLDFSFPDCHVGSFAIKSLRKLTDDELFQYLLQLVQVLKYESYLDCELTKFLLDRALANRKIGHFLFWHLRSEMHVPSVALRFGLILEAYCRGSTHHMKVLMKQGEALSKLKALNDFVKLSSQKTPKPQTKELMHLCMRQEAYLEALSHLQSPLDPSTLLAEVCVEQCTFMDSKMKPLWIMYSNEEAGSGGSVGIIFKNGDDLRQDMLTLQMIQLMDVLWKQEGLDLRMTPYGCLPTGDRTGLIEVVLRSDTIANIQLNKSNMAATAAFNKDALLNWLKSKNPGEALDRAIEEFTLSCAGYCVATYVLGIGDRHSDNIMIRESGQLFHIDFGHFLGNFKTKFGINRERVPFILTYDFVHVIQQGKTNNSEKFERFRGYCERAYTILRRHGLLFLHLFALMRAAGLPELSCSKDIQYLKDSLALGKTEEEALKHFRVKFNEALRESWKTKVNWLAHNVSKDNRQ
T2 sequence (P27986 whole entry partner): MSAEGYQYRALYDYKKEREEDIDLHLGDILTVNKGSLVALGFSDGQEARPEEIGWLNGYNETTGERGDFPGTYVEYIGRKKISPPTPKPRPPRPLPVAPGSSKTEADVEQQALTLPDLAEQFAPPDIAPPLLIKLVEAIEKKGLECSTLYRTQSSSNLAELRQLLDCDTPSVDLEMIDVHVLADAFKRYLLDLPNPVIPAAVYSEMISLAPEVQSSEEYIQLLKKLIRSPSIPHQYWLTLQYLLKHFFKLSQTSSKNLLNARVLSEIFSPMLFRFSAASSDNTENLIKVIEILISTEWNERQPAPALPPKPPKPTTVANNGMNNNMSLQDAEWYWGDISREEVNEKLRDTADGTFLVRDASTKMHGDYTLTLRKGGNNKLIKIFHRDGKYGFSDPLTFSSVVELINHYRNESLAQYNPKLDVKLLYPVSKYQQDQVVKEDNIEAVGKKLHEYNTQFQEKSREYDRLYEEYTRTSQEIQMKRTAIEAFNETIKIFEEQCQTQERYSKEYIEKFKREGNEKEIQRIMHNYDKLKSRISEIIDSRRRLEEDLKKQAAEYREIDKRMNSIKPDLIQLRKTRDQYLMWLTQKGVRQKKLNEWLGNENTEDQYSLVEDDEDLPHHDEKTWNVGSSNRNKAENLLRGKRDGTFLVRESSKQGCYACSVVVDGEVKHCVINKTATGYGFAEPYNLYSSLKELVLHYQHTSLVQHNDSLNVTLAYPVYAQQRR

PI3K α (p110α/p85α) = target: T3, PI3K α (p110α/p85α) (Homo sapiens, UniProt P42336); test: PI 3-Kinase (human) HTRF assay, PI3K α; conditions: read-out: PI3K α IC50
T3 construct: purchased Upstate / Millipore Corporation
T3 sequence (P42336 whole entry): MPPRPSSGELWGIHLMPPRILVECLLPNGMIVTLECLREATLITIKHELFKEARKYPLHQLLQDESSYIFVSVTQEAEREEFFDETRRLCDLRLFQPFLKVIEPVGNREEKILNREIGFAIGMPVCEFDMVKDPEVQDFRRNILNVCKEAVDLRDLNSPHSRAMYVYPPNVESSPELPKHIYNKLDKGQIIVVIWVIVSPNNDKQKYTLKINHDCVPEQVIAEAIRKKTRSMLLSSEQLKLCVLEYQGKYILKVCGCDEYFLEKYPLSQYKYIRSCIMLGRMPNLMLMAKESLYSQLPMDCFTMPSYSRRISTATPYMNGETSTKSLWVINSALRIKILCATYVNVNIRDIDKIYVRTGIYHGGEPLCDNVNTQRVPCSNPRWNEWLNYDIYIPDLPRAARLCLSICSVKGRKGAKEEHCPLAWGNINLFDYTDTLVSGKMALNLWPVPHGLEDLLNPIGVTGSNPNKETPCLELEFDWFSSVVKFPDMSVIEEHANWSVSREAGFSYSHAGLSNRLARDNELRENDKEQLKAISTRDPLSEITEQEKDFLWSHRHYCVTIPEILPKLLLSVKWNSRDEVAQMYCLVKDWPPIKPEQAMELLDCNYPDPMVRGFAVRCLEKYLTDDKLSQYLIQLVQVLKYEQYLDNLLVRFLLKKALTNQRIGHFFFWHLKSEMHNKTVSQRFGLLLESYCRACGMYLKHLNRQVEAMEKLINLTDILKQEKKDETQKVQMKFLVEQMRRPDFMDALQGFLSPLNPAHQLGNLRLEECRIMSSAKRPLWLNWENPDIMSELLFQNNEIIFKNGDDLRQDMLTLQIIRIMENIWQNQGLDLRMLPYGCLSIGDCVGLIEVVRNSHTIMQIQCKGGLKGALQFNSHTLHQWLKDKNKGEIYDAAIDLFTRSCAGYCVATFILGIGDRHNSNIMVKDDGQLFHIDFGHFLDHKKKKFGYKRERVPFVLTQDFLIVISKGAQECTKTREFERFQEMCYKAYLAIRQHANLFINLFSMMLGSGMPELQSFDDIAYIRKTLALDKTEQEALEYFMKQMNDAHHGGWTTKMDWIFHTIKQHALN
T3 sequence (P27986 whole entry partner): as the sequence (P27986 whole entry partner) above
Method: Briefly, the assay is a time resolved FRET assay that indirectly measures PIP3 product formed by the activity of a PI3-K. The kinase reaction is performed in a microtiter plate (e.g., a 384 well microtiter plate). The total reaction volume is approximately 20 ul per well. In the first step, each well receives 2 ul of test compound in 20% dimethylsulphoxide resulting in a 2% DMSO final concentration. […] The plate is sealed and incubated for 15 minutes at room temperature. […] The plate is sealed and incubated for 1 hour at room temperature. The reaction is stopped by adding 5 ul of Stop Solution per well and then 5 ul of Detection Mix is added per well. The plate is sealed, incubated for 1 hour at room temperature, and then read on an appropriate plate reader. Data is analyzed and IC50s are generated using GraphPad Prism 5.

PI3K β (p110β/p85α) = target: T4, PI3K β (p110β/p85α) (Homo sapiens, UniProt P42338); test: PI 3-Kinase (human) HTRF assay, PI3K β; conditions: read-out: PI3K β IC50
T4 construct: purchased Upstate / Millipore Corporation
T4 sequence (P42338 whole entry): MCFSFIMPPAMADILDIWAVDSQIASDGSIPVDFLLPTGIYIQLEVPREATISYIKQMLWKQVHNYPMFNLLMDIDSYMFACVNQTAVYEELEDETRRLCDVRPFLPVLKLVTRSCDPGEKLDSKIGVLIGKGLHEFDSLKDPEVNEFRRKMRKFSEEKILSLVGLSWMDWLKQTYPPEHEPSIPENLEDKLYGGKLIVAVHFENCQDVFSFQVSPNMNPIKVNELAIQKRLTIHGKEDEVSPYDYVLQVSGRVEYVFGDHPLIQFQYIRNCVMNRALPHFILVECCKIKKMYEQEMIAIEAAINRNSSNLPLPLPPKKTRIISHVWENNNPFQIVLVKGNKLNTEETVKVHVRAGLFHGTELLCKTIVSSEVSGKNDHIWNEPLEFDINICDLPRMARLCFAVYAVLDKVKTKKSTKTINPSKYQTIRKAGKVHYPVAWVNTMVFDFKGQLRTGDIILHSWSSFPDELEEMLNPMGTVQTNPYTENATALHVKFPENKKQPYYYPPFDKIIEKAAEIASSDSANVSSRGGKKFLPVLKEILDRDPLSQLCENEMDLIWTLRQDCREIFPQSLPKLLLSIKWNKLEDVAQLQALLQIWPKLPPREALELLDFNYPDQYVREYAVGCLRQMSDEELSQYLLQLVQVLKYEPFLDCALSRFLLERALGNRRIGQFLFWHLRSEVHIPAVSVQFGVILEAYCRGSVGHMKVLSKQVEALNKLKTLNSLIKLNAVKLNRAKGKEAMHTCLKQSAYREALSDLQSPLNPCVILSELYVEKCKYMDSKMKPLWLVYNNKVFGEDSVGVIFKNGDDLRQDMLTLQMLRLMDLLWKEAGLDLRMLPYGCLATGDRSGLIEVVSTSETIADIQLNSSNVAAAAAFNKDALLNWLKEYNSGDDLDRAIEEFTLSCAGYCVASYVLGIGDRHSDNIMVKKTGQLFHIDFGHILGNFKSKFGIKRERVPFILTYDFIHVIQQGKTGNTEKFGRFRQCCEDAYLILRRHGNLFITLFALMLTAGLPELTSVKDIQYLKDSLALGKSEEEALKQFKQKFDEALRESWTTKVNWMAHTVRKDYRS
T4 sequence (P27986 whole entry partner): as the sequence (P27986 whole entry partner) above

PI3K γ (p110γ) = target: T5, PI3K γ (p110γ) (Homo sapiens, UniProt P48736); test: PI 3-Kinase (human) HTRF assay, PI3K γ; conditions: read-out: PI3K γ IC50
T5 construct: purchased Upstate / Millipore Corporation
T5 sequence (P48736 whole entry): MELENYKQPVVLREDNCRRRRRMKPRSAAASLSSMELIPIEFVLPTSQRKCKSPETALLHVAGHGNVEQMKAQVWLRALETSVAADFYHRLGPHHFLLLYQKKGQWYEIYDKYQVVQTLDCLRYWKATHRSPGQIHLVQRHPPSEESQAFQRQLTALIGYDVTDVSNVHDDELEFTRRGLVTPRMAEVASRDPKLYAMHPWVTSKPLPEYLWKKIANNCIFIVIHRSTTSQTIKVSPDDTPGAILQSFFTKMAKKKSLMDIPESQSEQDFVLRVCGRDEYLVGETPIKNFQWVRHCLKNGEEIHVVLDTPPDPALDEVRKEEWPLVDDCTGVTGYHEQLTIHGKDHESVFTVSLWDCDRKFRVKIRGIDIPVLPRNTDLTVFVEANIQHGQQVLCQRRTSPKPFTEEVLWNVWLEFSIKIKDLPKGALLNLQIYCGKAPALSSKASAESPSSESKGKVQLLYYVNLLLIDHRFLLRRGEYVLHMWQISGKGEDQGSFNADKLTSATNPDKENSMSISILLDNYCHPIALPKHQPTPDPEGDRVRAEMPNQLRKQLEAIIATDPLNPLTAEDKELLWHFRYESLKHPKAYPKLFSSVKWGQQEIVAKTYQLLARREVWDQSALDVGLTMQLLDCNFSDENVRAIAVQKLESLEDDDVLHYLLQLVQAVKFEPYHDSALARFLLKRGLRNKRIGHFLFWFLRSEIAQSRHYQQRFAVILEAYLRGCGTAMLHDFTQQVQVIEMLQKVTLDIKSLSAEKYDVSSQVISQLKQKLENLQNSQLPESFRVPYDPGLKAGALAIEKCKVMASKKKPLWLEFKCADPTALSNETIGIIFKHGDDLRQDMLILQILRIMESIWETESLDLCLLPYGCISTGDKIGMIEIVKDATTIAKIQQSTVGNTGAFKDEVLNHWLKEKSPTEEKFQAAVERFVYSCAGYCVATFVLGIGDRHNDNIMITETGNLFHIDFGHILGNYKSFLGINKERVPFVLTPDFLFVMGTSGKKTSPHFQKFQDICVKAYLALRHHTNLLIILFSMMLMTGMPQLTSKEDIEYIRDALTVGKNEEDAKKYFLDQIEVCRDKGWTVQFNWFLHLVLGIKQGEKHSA

Row | SMILES | IC50 (mTOR) [µM] | IC50 (PI3K δ) [µM] | IC50 (PI3K α (p110α/p85α)) [nM] | IC50 (PI3K β (p110β/p85α)) [µM] | IC50 (PI3K γ (p110γ)) [µM] | IC50 (mTOR; Table 4 (PI3K α inhibitors)) [µM] | IC50 (PI3K β (p110β/p85α); Table 4 (PI3K α inhibitors)) [µM] | IC50 (PI3K α (p110α/p85α); Table 4 (PI3K α inhibitors)) [nM] | IC50 (PI3K δ; Table 4 (PI3K α inhibitors)) [µM] | IC50 (PI3K γ (p110γ); Table 4 (PI3K α inhibitors)) [µM]
1 | Nc1nc2cc(-c3ccc4ncc(-c5ccnc(N6CCOCC6)c5)n4c3)ccc2o1 [Compound 52] | < 10 | < 0.1 | < 100 | – | – | – | – | – | – | –
2 | N#Cc1cnc2ccc(-c3ccc4oc(N)nc4c3)cc2c1Cl [Compound 77] | < 1 | – | – | – | – | – | – | – | – | –
3 | Nc1nc2cc(-c3ccc4oc(N)nc4c3)ccc2o1 [Compound 240] | < 10 | < 10 | < 1000 | – | – | – | – | – | – | –
4 | COc1ncc(-c2ccc3ncn(C4CCN(C(C)C)CC4)c(=O)c3c2)cc1NS(=O)(=O)c1ccccc1 [Compound 522] | – | < 0.1 | < 100 | < 0.1 | < 0.1 | – | – | – | – | –
5 | CC(C)N1CCC(n2cnc3ccc(-c4cnc(Cl)c(NS(C)(=O)=O)c4)cc3c2=O)CC1 [Compound 523] | – | < 0.1 | < 100 | < 1 | < 0.1 | – | – | – | – | –
6 | COc1ncc(-c2ccc3ncn(C4CCN(C)CC4)c(=O)c3c2)cc1NS(=O)(=O)c1ccccc1 [Compound 524] | – | < 0.1 | < 100 | < 0.1 | < 1 | – | – | – | – | –
7 | COc1ncc(-c2ccc3ncn(C4CCN(C)CC4)c(=O)c3c2)cc1NS(C)(=O)=O [Compound 525] | – | < 0.1 | < 100 | < 1 | < 10 | – | – | – | – | –
8 | CN1CCC(n2cnc3ccc(-c4cnc(Cl)c(NS(C)(=O)=O)c4)cc3c2=O)CC1 [Compound 526] | – | < 1 | < 100 | < 10 | > 10 | – | – | – | – | –
9 | CN1CCC(n2cnc3ccc(-c4cnc(Cl)c(NS(=O)(=O)c5ccccc5)c4)cc3c2=O)CC1 [Compound 527] | – | < 0.1 | < 100 | < 0.1 | < 1 | – | – | – | – | –
10 | CN1CC(n2cnc3ccc(-c4ccc5oc(N)nc5c4)cc3c2=O)C1 [Compound 528] | – | > 10 | < 1000 | < 10 | > 10 | – | – | – | – | –
11 | CN1CC2CN(C(=O)c3cnc4ccc(-c5ccc6oc(N)nc6c5)cn34)CC2C1 (centres unmarked) [Compound 533] | – | < 1 | < 100 | < 1 | < 1 | – | – | – | – | –
12 | O=C(c1cnc2ccc(-c3cnc4cn[nH]c4c3)cn12)N1CCOCC1 [Compound 535] | – | > 10 | < 10000 | > 10 | > 10 | – | – | – | – | –
13 | Nc1nc2cc(-c3cnc4ccc(C(=O)N5C6CCC5COC6)cn34)ccc2o1 [Compound 540] | – | > 10 | > 10000 | > 10 | > 10 | – | – | – | – | –
14 | CN1CCN(c2nnc3ccc(-c4ccc5nc(N)oc5c4)cn23)CC1 [Compound 542] | – | > 10 | > 10000 | > 10 | > 10 | – | – | – | – | –
15 | Nc1nc2ccc(-c3ccc4ncc(C(=O)N5CCOCC5)n4c3)cc2[nH]1 [Compound 544] | – | > 10 | < 1000 | > 10 | > 10 | – | – | – | – | –
16 | CN1CCN(CCc2nnc3ccc(-c4ccc5nc(N)oc5c4)cn23)CC1 [Compound 545] | – | > 10 | > 10000 | > 10 | > 10 | – | – | – | – | –
17 | Cc1cc(-c2ccc3nc(N)oc3c2)cn2c(N3CCN(C)CC3)nnc12 [Compound 546] | – | > 10 | > 10000 | > 10 | > 10 | – | – | – | – | –
18 | CN1CCN(Cc2nnc3ccc(-c4ccc5nc(N)oc5c4)cn23)CC1 [Compound 547] | – | > 10 | > 10000 | > 10 | > 10 | – | – | – | – | –
19 | Cc1cc(-c2ccc3nc(N)oc3c2)cn2c(CCN3CCN(C)CC3)nnc12 [Compound 548] | – | > 10 | > 10000 | > 10 | > 10 | – | – | – | – | –
20 | Cc1cc(-c2ccc3nc(N)oc3c2)cn2c(CN3CCN(C)CC3)nnc12 [Compound 549] | – | > 10 | > 10000 | > 10 | > 10 | – | – | – | – | –

Row | SMILES | IC50 (mTOR) [µM] | IC50 (PI3K δ) [µM] | IC50 (PI3K α (p110α/p85α)) [nM] | IC50 (PI3K β (p110β/p85α)) [µM] | IC50 (PI3K γ (p110γ)) [µM] | IC50 (mTOR; Table 4 (PI3K α inhibitors)) [µM] | IC50 (PI3K β (p110β/p85α); Table 4 (PI3K α inhibitors)) [µM] | IC50 (PI3K α (p110α/p85α); Table 4 (PI3K α inhibitors)) [nM] | IC50 (PI3K δ; Table 4 (PI3K α inhibitors)) [µM] | IC50 (PI3K γ (p110γ); Table 4 (PI3K α inhibitors)) [µM]
21 | Nc1nc2cc(-c3ccc4ncc(C(=O)NCCOCC(=O)O)n4c3)ccc2o1 [Compound 551] | – | < 10 | < 100 | < 1 | < 0.1 | – | – | – | – | –
22 | Nc1nc2cc(-c3ccc4ncc(N5CC(N6CCOCC6)C5)nc4n3)ccc2o1 [Compound 556] | – | – | – | – | – | < 10 | > 10 | < 100 | – | –
23 | Nc1nc2cc(-c3ccc4nc(N5CCOCC5)cnc4n3)ccc2o1 [Compound 558] | – | – | – | – | – | – | > 10 | > 10000 | > 10 | > 10
24 | Nc1nc2cc(-c3ccc4ncc(N5CCC(F)(F)CC5)nc4n3)ccc2o1 [Compound 564] | – | – | – | – | – | – | > 10 | < 100 | > 10 | < 0.1
25 | CC1(C)CN(C2CN(c3cnc4ccc(-c5ccc6oc(N)nc6c5)nc4n3)C2)CCO1 [Compound 568] | – | – | – | – | – | – | > 10 | < 1000 | > 10 | < 10
26 | Nc1nc2cc(-c3ccc4ncc(N5CCOCC5)cc4n3)ccc2o1 [Compound 573] | – | – | – | – | – | – | < 1 | < 100 | > 10 | < 0.1
27 | C[C@H](N)C(=O)N1CCN(c2cnc3ccc(-c4ccc5oc(N)nc5c4)nc3n2)CC1 [Compound 581] | – | – | – | – | – | – | < 0.1 | < 100 | < 0.1 | < 0.1
28 | Nc1nc2cc(-c3ccc4ncc(N5CC(N6CCNCC6)C5)nc4n3)ccc2o1 [Compound 585] | – | – | – | – | – | – | > 10 | < 1000 | > 10 | > 10
29 | Nc1nc2cc(-c3ccc4ncc(N5CC(N6CCN(CC7CC7)CC6)C5)nc4n3)ccc2o1 [Compound 586] | – | – | – | – | – | > 10 | – | < 100 | – | –
30 | C[C@H](N)C(=O)N1CCN(c2cnc3ccc(-c4ccc5oc(N)nc5c4)nc3c2)CC1 [Compound 589] | – | – | – | – | – | – | < 1 | < 100 | < 1 | < 1
31 | C[C@@H](N)C(=O)N1CCN(c2cnc3ccc(-c4ccc5oc(N)nc5c4)nc3c2)CC1 [Compound 590] | – | – | – | – | – | – | < 0.1 | < 100 | < 1 | < 1
32 | CC(C)(N)C(=O)N1CCN(c2cnc3ccc(-c4ccc5oc(N)nc5c4)nc3n2)CC1 [Compound 591] | – | – | – | – | – | > 10 | – | < 100 | – | –
33 | Nc1nc2cc(-c3ccc4ncc(N5CCN(C(=O)C6(N)CC6)CC5)cc4n3)ccc2o1 [Compound 593] | – | – | – | – | – | – | < 1 | < 100 | < 1 | < 0.1
34 | Nc1nc2cc(-c3ccc4ncc(N5CC(N6CCN(CCO)CC6)C5)nc4n3)ccc2o1 [Compound 597] | – | – | – | – | – | > 10 | – | < 100 | – | –
35 | Cc1nccn1C1CN(c2cnc3ccc(-c4ccc5oc(N)nc5c4)nc3n2)C1 [Compound 601] | – | – | – | – | – | > 10 | – | < 100 | – | –
36 | CC1(C)CN(C2CN(c3cnc4ccc(-c5ccc6oc(N)nc6c5)nc4n3)C2)CCN1 [Compound 603] | – | – | – | – | – | > 10 | – | < 100 | < 1 | –
37 | C[C@H]1CN(C2CN(c3cnc4ccc(-c5ccc6oc(N)nc6c5)nc4c3)C2)CCN1 [Compound 605] | – | – | – | – | – | > 10 | – | < 100 | < 1 | –
38 | Nc1nc2cc(-c3ccc4ncc(N5CC(N6CCN(CC7CC7)CC6)C5)cc4n3)ccc2o1 [Compound 611] | – | – | – | – | – | > 10 | – | < 100 | < 1 | –
39 | CN1CCN(C2CN(c3cnc4ccc(-c5ccc6oc(N)nc6c5)nc4n3)C2)CC1 [Compound 622] | – | – | – | – | – | > 10 | – | < 100 | < 1 | –
40 | CCN1CCN(C2CN(c3cnc4ccc(-c5ccc6oc(N)nc6c5)nc4n3)C2)CC1 [Compound 627] | – | – | – | – | – | < 10 | – | < 100 | – | –
